In patent publication US11214594B2, “Antimicrobial peptide having synergistic antibacterial effect with antibiotics on multidrug resistant bacteria, and use thereof” (priority 2016, dated 2022):
Converted amounts (≈) assume the structure as drawn. Where a SMILES comes first, the peptide text is derived from it.

Columns and labels:
MDREC 1229 = test: microbe, parasite or virus in culture; type: cell-based, Escherichia coli
How it was run: (§1)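 Each strain is brought to 2×10^6 CFU in nutrient-sufficient Mueller-Hinton medium and dispensed into wells. Peptide solutions, stepwise diluted 2:1 in the same medium, are then added. The minimal concentration preventing growth gives the MIC.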

E. coli [1] = test: microbe, parasite or virus in culture; type: cell-based, Escherichia coli; details: 16 h
How it was run: as §1

MDRST 8009 = type: cell-based, Salmonella typhimurium; details: agent alone
How it was run: as §1

A. baumannii = test: MIC of antibiotic during combined treatment with antimicrobial peptide; type: cell-based, Acinetobacter baumannii; details: for Synergistic effect of antibacterial activity with existing antibiotics compared with PapMA-1: A. baumannii and MDRAB 12035; for Antibiotic MIC, Erythromycin / Antibiotic MIC, Linezolid / Antibiotic MIC, Vancomycin: A. baumannii
How it was run: (§2)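 MIC values for mixed peptide plus antibiotic solutions were measured in MH medium.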

E. coli [2] = test: as above; type: cell-based, Escherichia coli; details: for Synergistic effect of antibacterial activity with existing antibiotics compared with PapMA-1: E. coli and MDREC1229; for Antibiotic MIC, Erythromycin / Antibiotic MIC, Linezolid / Antibiotic MIC, Vancomycin: E. coli
How it was run: as §2

gram-negative bacteria = test: MIC, summary statements for gram-negative bacteria; type: cell-based; details: gram-negative bacteria
Experimental: For the antibacterial activity, a minimal inhibitory concentration (MIC) of a peptide in which fungus bodies were not split in an MH medium with sufficient nutrients was measured.
Specifically, the strains described in the following [Table 2] were purchased and diluted with an MH medium such that the number of bacteria was 2×10^6 colony-forming units (CFUs), 100 μl of each of the diluted strains was aliquoted into a 96-well microtiter plate, and then 100 μl of a peptide solution diluted with the MH medium (solution diluted stepwise at 2: 1) was added to each well.

[3] = combined with peptide at 1 μg/ml
[4] = combined with peptide at 2 μg/ml
[5] = combined with peptide at 4 μg/ml
[6] = combined with peptide at 6 μg/ml
[7] = combined with peptide at 8 μg/ml
[8] = combined with peptide at 16 μg/ml
[9] = combined with peptide at 32 μg/ml
[10] = combined with peptide at 64 μg/ml
[11] = erythromycin combined with peptide at 1 μg/ml
[12] = erythromycin combined with peptide at 2 μg/ml
[13] = erythromycin combined with peptide at 4 μg/ml
[14] = erythromycin combined with peptide at 6 μg/ml
[15] = erythromycin combined with peptide at 8 μg/ml
[16] = erythromycin combined with peptide at 16 μg/ml
[17] = erythromycin combined with peptide at 32 μg/ml
[18] = erythromycin combined with peptide at 64 μg/ml
[19] = linezolid combined with peptide at 1 μg/ml
[20] = linezolid combined with peptide at 2 μg/ml
[21] = linezolid combined with peptide at 4 μg/ml
[22] = linezolid combined with peptide at 6 μg/ml
[23] = linezolid combined with peptide at 8 μg/ml
[24] = linezolid combined with peptide at 16 μg/ml
[25] = linezolid combined with peptide at 32 μg/ml
[26] = linezolid combined with peptide at 64 μg/ml
[27] = vancomycin combined with peptide at 1 μg/ml
[28] = vancomycin combined with peptide at 2 μg/ml
[29] = vancomycin combined with peptide at 4 μg/ml
[30] = vancomycin combined with peptide at 6 μg/ml
[31] = vancomycin combined with peptide at 8 μg/ml
[32] = vancomycin combined with peptide at 16 μg/ml
[33] = vancomycin combined with peptide at 32 μg/ml
[34] = vancomycin combined with peptide at 64 μg/ml

CC[C@H](C)[C@H](NC(=O)[C@H](CCCCN)NC(=O)[C@H](Cc1c[nH]c2ccccc12)NC(=O)[C@@H](N)CCCNC(=N)N)C(=O)N[C@@H](Cc1ccccc1)C(=O)N[C@@H](CCCCN)C(=O)N[C@@H](CCCCN)C(=O)N[C@H](C(=O)N1CCC[C@H]1C(=O)N[C@@H](CCCCN)C(=O)N[C@@H](Cc1ccccc1)C(=O)N[C@@H](CC(C)C)C(=O)N[C@@H](Cc1c[nH]cn1)C(=O)N[C@@H](CO)C(=O)N[C@@H](C)C(=O)N[C@@H](CCCCN)C(=O)N[C@@H](CCCCN)C(=O)N[C@@H](Cc1c[nH]c2ccccc12)C(N)=O)[C@@H](C)CC [PapMA-2, RWK IFK KIP KFL HSA KKW-NH2] (H-RWKIFKKIPKFLHSAKKW-NH2; N-terminus assumed)
Minimal inhibitory concentration MIC (MDREC 1229): 64 µg/mL (≈ 27.3 µM) | Minimal inhibitory concentration MIC (E. coli [1]): 64 µg/mL (≈ 27.3 µM) | Minimal inhibitory concentration MIC (MDRST 8009): 64 µg/mL (≈ 27.3 µM) | Synergistic effect of antibacterial activity with existing antibiotics compared with PapMA-1 (A. baumannii): higher level than the PapMA-1 peptide | Antibiotic MIC, Erythromycin (A. baumannii; [3]): 16 µg/mL | Antibiotic MIC, Linezolid (A. baumannii; [3]): >128 µg/mL | Antibiotic MIC, Vancomycin (A. baumannii; [3]): >128 µg/mL | Antibiotic MIC, Erythromycin (A. baumannii; [4]): 16 µg/mL | Antibiotic MIC, Linezolid (A. baumannii; [4]): 64 µg/mL | Antibiotic MIC, Vancomycin (A. baumannii; [4]): 128 µg/mL | Antibiotic MIC, Erythromycin (A. baumannii; [5]): 8 µg/mL | Antibiotic MIC, Linezolid (A. baumannii; [5]): 32 µg/mL | Antibiotic MIC, Vancomycin (A. baumannii; [5]): 32 µg/mL | Antibiotic MIC, Erythromycin (A. baumannii; [6]): 1 µg/mL | Antibiotic MIC, Linezolid (A. baumannii; [6]): 16 µg/mL | Antibiotic MIC, Vancomycin (A. baumannii; [6]): 16 µg/mL | Antibiotic MIC, Erythromycin (A. baumannii; [7]): 0.125 µg/mL | Antibiotic MIC, Linezolid (A. baumannii; [7]): 8 µg/mL | Antibiotic MIC, Vancomycin (A. baumannii; [7]): 8 µg/mL | Antibiotic MIC, Erythromycin (A. baumannii; [8]): 0 µg/mL | Antibiotic MIC, Linezolid (A. baumannii; [8]): 0 µg/mL | Antibiotic MIC, Vancomycin (A. baumannii; [8]): 0 µg/mL | Antibiotic MIC, Erythromycin (A. baumannii; [9]): 0 µg/mL | Antibiotic MIC, Linezolid (A. baumannii; [9]): 0 µg/mL | Antibiotic MIC, Vancomycin (A. baumannii; [9]): 0 µg/mL | Antibiotic MIC, Erythromycin (A. baumannii; [10]): 0 µg/mL | Antibiotic MIC, Linezolid (A. baumannii; [10]): 0 µg/mL | Antibiotic MIC, Vancomycin (A. baumannii; [10]): 0 µg/mL | Synergistic effect of antibacterial activity with existing antibiotics compared with PapMA-1 (E. coli [2]): higher level than the PapMA-1 peptide | Antibiotic MIC, Erythromycin (E. coli [2]; [11]): 64 µg/mL | Antibiotic MIC, Erythromycin (E. coli [2]; [12]): 32 µg/mL | Antibiotic MIC, Erythromycin (E. coli [2]; [13]): 16 µg/mL | Antibiotic MIC, Erythromycin (E. coli [2]; [14]): 2 µg/mL | Antibiotic MIC, Erythromycin (E. coli [2]; [15]): 0.5 µg/mL | Antibiotic MIC, Erythromycin (E. coli [2]; [16]): 0.25 µg/mL | Antibiotic MIC, Erythromycin (E. coli [2]; [17]): 0.125 µg/mL | Antibiotic MIC, Erythromycin (E. coli [2]; [18]): 0 µg/mL | Antibiotic MIC, Linezolid (E. coli [2]; [19]): 128 µg/mL | Antibiotic MIC, Linezolid (E. coli [2]; [20]): 64 µg/mL | Antibiotic MIC, Linezolid (E. coli [2]; [21]): 16 µg/mL | Antibiotic MIC, Linezolid (E. coli [2]; [22]): 16 µg/mL | Antibiotic MIC, Linezolid (E. coli [2]; [23]): 8 µg/mL | Antibiotic MIC, Linezolid (E. coli [2]; [24]): 8 µg/mL | Antibiotic MIC, Linezolid (E. coli [2]; [25]): 4 µg/mL | Antibiotic MIC, Linezolid (E. coli [2]; [26]): 0 µg/mL | Antibiotic MIC, Vancomycin (E. coli [2]; [27]): >128 µg/mL | Antibiotic MIC, Vancomycin (E. coli [2]; [28]): >128 µg/mL | Antibiotic MIC, Vancomycin (E. coli [2]; [29]): >128 µg/mL | Antibiotic MIC, Vancomycin (E. coli [2]; [30]): 64 µg/mL | Antibiotic MIC, Vancomycin (E. coli [2]; [31]): 32 µg/mL | Antibiotic MIC, Vancomycin (E. coli [2]; [32]): 8 µg/mL | Antibiotic MIC, Vancomycin (E. coli [2]; [33]): 4 µg/mL | Antibiotic MIC, Vancomycin (E. coli [2]; [34]): 0 µg/mL | Lowering of the MIC value of the antibiotics mixed with peptide compared with PapMA-1 (E. coli [2]; same peptide concentration as PapMA-1): twice to four times | Antibacterial activity (in words) (gram-negative bacteria): comparable to papiliocin or melittin

CC[C@H](C)[C@H](NC(=O)[C@H](CCCCN)NC(=O)[C@H](Cc1c[nH]c2ccccc12)NC(=O)[C@@H](N)CCCNC(=N)N)C(=O)N[C@@H](Cc1ccccc1)C(=O)N[C@@H](CCCCN)C(=O)N[C@@H](CCCCN)C(=O)N[C@H](C(=O)N1CCC[C@H]1C(=O)N[C@@H](CCCCN)C(=O)N[C@@H](Cc1ccccc1)C(=O)N[C@@H](CC(C)C)C(=O)N[C@@H](Cc1c[nH]cn1)C(=O)N[C@@H](CO)C(=O)N[C@@H](Cc1c[nH]c2ccccc12)C(=O)N[C@@H](CCCCN)C(=O)N[C@@H](CCCCN)C(=O)N[C@@H](Cc1ccccc1)C(N)=O)[C@@H](C)CC [PapMA-3, RWK IFK KIP KFL HSW KKF-NH2] (H-RWKIFKKIPKFLHSWKKF-NH2; N-terminus assumed)
Minimal inhibitory concentration MIC (MDREC 1229): 32 µg/mL (≈ 13.2 µM) | Minimal inhibitory concentration MIC (E. coli [1]): 32 µg/mL (≈ 13.2 µM) | Minimal inhibitory concentration MIC (MDRST 8009): 64 µg/mL (≈ 26.5 µM) | Synergistic effect of antibacterial activity with existing antibiotics compared with PapMA-1 (A. baumannii): higher level than the PapMA-1 peptide | Antibiotic MIC, Erythromycin (A. baumannii; [3]): 32 µg/mL | Antibiotic MIC, Linezolid (A. baumannii; [3]): >128 µg/mL | Antibiotic MIC, Vancomycin (A. baumannii; [3]): >128 µg/mL | Antibiotic MIC, Erythromycin (A. baumannii; [4]): 16 µg/mL | Antibiotic MIC, Linezolid (A. baumannii; [4]): 64 µg/mL | Antibiotic MIC, Vancomycin (A. baumannii; [4]): 128 µg/mL | Antibiotic MIC, Erythromycin (A. baumannii; [5]): 8 µg/mL | Antibiotic MIC, Linezolid (A. baumannii; [5]): 32 µg/mL | Antibiotic MIC, Vancomycin (A. baumannii; [5]): 64 µg/mL | Antibiotic MIC, Erythromycin (A. baumannii; [6]): 1 µg/mL | Antibiotic MIC, Linezolid (A. baumannii; [6]): 16 µg/mL | Antibiotic MIC, Vancomycin (A. baumannii; [6]): 32 µg/mL | Antibiotic MIC, Erythromycin (A. baumannii; [7]): 0.125 µg/mL | Antibiotic MIC, Linezolid (A. baumannii; [7]): 8 µg/mL | Antibiotic MIC, Vancomycin (A. baumannii; [7]): 32 µg/mL | Antibiotic MIC, Erythromycin (A. baumannii; [8]): 0 µg/mL | Antibiotic MIC, Linezolid (A. baumannii; [8]): 0 µg/mL | Antibiotic MIC, Vancomycin (A. baumannii; [8]): 0 µg/mL | Antibiotic MIC, Erythromycin (A. baumannii; [9]): 0 µg/mL | Antibiotic MIC, Linezolid (A. baumannii; [9]): 0 µg/mL | Antibiotic MIC, Vancomycin (A. baumannii; [9]): 0 µg/mL | Antibiotic MIC, Erythromycin (A. baumannii; [10]): 0 µg/mL | Antibiotic MIC, Linezolid (A. baumannii; [10]): 0 µg/mL | Antibiotic MIC, Vancomycin (A. baumannii; [10]): 0 µg/mL | Synergistic effect of antibacterial activity with existing antibiotics compared with PapMA-1 (E. coli [2]): level similar to that of the PapMA-1 peptide | Antibiotic MIC, Erythromycin (E. coli [2]; [11]): 64 µg/mL | Antibiotic MIC, Erythromycin (E. coli [2]; [12]): 32 µg/mL | Antibiotic MIC, Erythromycin (E. coli [2]; [13]): 16 µg/mL | Antibiotic MIC, Erythromycin (E. coli [2]; [14]): 4 µg/mL | Antibiotic MIC, Erythromycin (E. coli [2]; [15]): 1 µg/mL | Antibiotic MIC, Erythromycin (E. coli [2]; [16]): 0.125 µg/mL | Antibiotic MIC, Erythromycin (E. coli [2]; [17]): 0 µg/mL | Antibiotic MIC, Erythromycin (E. coli [2]; [18]): 0 µg/mL | Antibiotic MIC, Linezolid (E. coli [2]; [19]): 128 µg/mL | Antibiotic MIC, Linezolid (E. coli [2]; [20]): 64 µg/mL | Antibiotic MIC, Linezolid (E. coli [2]; [21]): 32 µg/mL | Antibiotic MIC, Linezolid (E. coli [2]; [22]): 32 µg/mL | Antibiotic MIC, Linezolid (E. coli [2]; [23]): 16 µg/mL | Antibiotic MIC, Linezolid (E. coli [2]; [24]): 2 µg/mL | Antibiotic MIC, Linezolid (E. coli [2]; [25]): 0 µg/mL | Antibiotic MIC, Linezolid (E. coli [2]; [26]): 0 µg/mL | Antibiotic MIC, Vancomycin (E. coli [2]; [27]): >128 µg/mL | Antibiotic MIC, Vancomycin (E. coli [2]; [28]): >128 µg/mL | Antibiotic MIC, Vancomycin (E. coli [2]; [29]): >128 µg/mL | Antibiotic MIC, Vancomycin (E. coli [2]; [30]): 128 µg/mL | Antibiotic MIC, Vancomycin (E. coli [2]; [31]): 32 µg/mL | Antibiotic MIC, Vancomycin (E. coli [2]; [32]): 8 µg/mL | Antibiotic MIC, Vancomycin (E. coli [2]; [33]): 0 µg/mL | Antibiotic MIC, Vancomycin (E. coli [2]; [34]): 0 µg/mL | Antibacterial activity (in words) (gram-negative bacteria): comparable to papiliocin or melittin
